Experimental data from paper PMC7281206, “Cysteine Cathepsins Inhibition Affects Their Expression and Human Renal Cancer Cell Phenotype” (Cancers, 2020).
“Also recorded” adds a separate entry of the source. *: point of attachment. CH2F = FC*

Assays:
[1] = system: LAMP-1 in 769-P cells; assay: LAMP-1 protein expression (western blot), 769-P; assay type: cell-based, human; conditions: 20 μM, 24, 48, 72 h
Method: Figure 7 Effect of the peptides on LAMP-1 protein expression: (a) Western blotting analysis of LAMP-1 after treatment with PLVE and VLPE (20 μM) for 24, 48, and 72 h in 769-P cells. (b) Confocal microscopy evaluation of LAMP-1 expression after 48 and 72 h of treatment with PLVE and VLPE (20 μM) in 769-P cells. (c) Western blotting analysis of LAMP-1 after treatment with PLVE and VLPE (20 μM) for 24, 48, and 72 h in A498 cells. (d) Confocal microscopy evaluation of LAMP-1 expression after 48 and 72 h of treatment with PLVE and VLPE (20 μM) in A498 cells. Data are represented as mean ± SD of at least three replicates. Significance was calculated through one-way ANOVA followed by Dunnet’s test. * = p < 0.05, ** = p < 0.01, *** = p < 0.001. Cells were seeded in RPMI containing 10% FBS and cultured for 24 h. Next, 30 µM of inhibitors were added to the culture medium and incubated for 24, 48, and 72 h. Control cells were treated with 0.01% DMSO. At all time points the samples were lysed in 50 mM Tri-HCl (pH 8.0), 100 mM NaCl, 0.5% NP-40, 1% Triton X-100, 1× protease inhibitor cocktail (ThermoFisher, Waltham, MA, USA). The 50 µg of protein lysates were separated by electrophoresis on a 12% SDS-PAGE gel and transferred to the PFDF membranes. […] After an additional wash (three times with PBS), reactive bands were detected by chemiluminescence (Bio-Rad, Irvine, CA, USA). […]

[2] = system: A498 cells; assay: Cell viability/proliferation (MTT), A498; assay type: cell-based, human; conditions: 2.5–250 μM; for Cell viability: 72 h; for Effect on cell proliferation: within 48 h
Method: Figure 3 The effect of the peptide inhibitors on human 769-P and A498 renal cancer cell proliferation and proteolytic activity. (a) 769-P and (b) A498 cells were treated with increasing doses of Ac-PLVE-FMK (red bars) and Ac-VLPE-FMK (blue bars) (2.5–250 μM). Cell proliferation was measured after 24, 48, and 72 h via MTT (3-(4,5-dimethylthiazol-2-yl)-2,5-diphenyltetrazolium bromide) assay. Data represent the mean (±S.D.) of at least three independent experiments, each performed in triplicate. (c) Fluorescence microscopy evaluation and quantification of the cell proteolytic activity in 769-P and (d) A498 cells towards the fluorogenic substrate Ac-PLVQ-AMC in the absence or presence of Ac-PLVE-FMK and Ac-VLPE-FMK. The cells were seeded in a 96-well plate and after exposure to the peptides for 30 min prior incubation with the fluorescent substrate Ac-PLVQ-AMC for 10 min. Data are expressed as mean (±S.D.), and significance was calculated through one-way ANOVA followed by Dunnet’s test. * = p < 0.05, ** = p < 0.01, *** = p < 0.001.
The human renal cancer cell line lines […], A498 were obtained from Dr. Vadim Pokrovsky (purchased from American Type Culture Collection). The cells were cultured in RPMI 1640, supplemented with 10% fetal bovine serum and 1% mixture of antibiotics penicillin-streptomycin (all from Gibco, Waltham, MA, USA) at 5% CO2 and 37 °C in a humidified chamber. Cells were grown to confluence and harvested by trypsinization, using a 0.25 mg/mL trypsin/EDTA solution (ThermoFisher, Carlsbad, CA, USA) and resuspended in the fresh culture medium. Viable cells were enumerated on the Countess II FL Automated Cell Counter (ThermoFisher, Waltham, MA, USA), following Trypan Blue staining. The cell lines were tested for mycoplasma contamination regularly, using the Molecular Probes™ MycoFluor Mycoplasma Detection Kit (ThermoFisher, Waltham, MA, USA).
The cell number was evaluated by counting viable cells using the MTT (3-(4,5-dimethylthiazol-2-yl)-2,5-diphenyltetrazolium bromide) colorimetric assay. A total of 2 × 10^4 cells/well were seeded on independent 96-well plates for each time point (0, 24, 48, and 72 h), with five replicates and treated with two inhibitors (2.5–250 μM). Then, 10 µL of the MTT reagent was added to each well, and cells were incubated for another 5 h. Next, the absorbance value was measured using a CLARIOstar® Plus plate reader (BMG Labtech, Ortenberg, Germany) at 490 nm. Triplicate wells were assayed, and S.D.s were determined.

[3] = Dispersibility in water; assay type: physicochemical

Row | Substance | LAMP-1 protein expression [1] | Cell viability [2] | Effect on cell proliferation [2] | Dispersibility in water [3]
1 | Ac-VLPE-CH2F [Ac-VLPE-FMK] | significantly increased the expression of this lysosomal biomarker at all the considered time points, reaching significant peaks at 48 h of treatment; also recorded: more efficient than Ac-PLVE-FMK in increasing the expression of LAMP-1 | cell viability increased, reaching values not significantly different from the control cells | cytostatic properties on both cell lines only within 48 h of treatment | easily dispersed in water
2 | Ac-PLVE-CH2F [Ac-PLVE-FMK] | significantly increased the expression of this lysosomal biomarker at all the considered time points, reaching significant peaks at 48 h of treatment | cell viability increased, reaching values not significantly different from the control cells | cytostatic properties on both cell lines only within 48 h of treatment | easily dispersed in water
